The experiment addresses T1, mAChR M1 (UniProt P08482).
T1 sequence (P08482 1-460): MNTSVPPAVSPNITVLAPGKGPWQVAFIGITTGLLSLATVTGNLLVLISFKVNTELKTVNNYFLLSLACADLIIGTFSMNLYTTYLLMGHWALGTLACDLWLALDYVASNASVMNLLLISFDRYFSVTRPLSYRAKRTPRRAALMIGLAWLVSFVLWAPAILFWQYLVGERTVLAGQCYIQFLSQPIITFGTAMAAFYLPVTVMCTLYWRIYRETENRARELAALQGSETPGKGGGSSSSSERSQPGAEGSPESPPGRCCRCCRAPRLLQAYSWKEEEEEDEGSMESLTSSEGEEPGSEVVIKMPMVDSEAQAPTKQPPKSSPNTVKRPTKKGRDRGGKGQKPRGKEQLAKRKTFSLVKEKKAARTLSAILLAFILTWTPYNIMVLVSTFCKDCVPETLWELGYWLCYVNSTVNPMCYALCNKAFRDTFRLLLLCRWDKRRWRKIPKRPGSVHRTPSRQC
Briefly: mAChR M1 cell-based functional assay (calcium mobilization, Fluo-4, FDSS). Conditions: for Efficacy (% ACh maximum at 30 μM): maximal calcium flux response from curve fit or response at 30 μM compound, as % of the EC80 ACh response; for EC50: positive allosteric modulation of EC20 acetylcholine response, CHO-K1 cells expressing mAChR M1, read-out: Potency (EC50). On the technique in general: A change in cytosolic calcium serves as a functional read-out for many receptors and channels.

From US8772509B2, “Indole compounds as positive allosteric modulators of the muscarinic receptor” (Vanderbilt University, priority 2010, dated 2014) come the findings set out here.

Some results are limits rather than exact numbers.

Usually EC50 stands for the concentration at which the effect is half-maximal.

`O=C(CS(=O)(=O)c1cn(Cc2cccc(Br)c2)c2cc(F)cc(F)c12)Nc1cncs1` [compound 38, 2-((1-(3-bromobenzyl)-4,6-difluoro-1H-indol-3-yl)sulfonyl)-N-(thiazol-5-yl)acetamide]: the “Efficacy (% ACh maximum at 30 μM)” value is 49% and the EC50 is more than 10 µM.

With `COc1ncccc1-c1cccc(Cn2cc(S(=O)(=O)CC(=O)Nc3ccccn3)c3c(F)cc(F)cc32)c1` [compound 40, 2-((4,6-difluoro-1-(3-(2-methoxypyridin-3-yl)benzyl)-1H-indol-3-yl)sulfonyl)-N-(pyridin-2-yl)acetamide], the “Efficacy (% ACh maximum at 30 μM)” value is reported as 37% and the EC50 is more than 10 µM. For the compound `Cc1cc(NC(=O)CS(=O)(=O)c2cn(Cc3cccc(Br)c3)c3cc(F)cc(F)c23)no1` [compound 30, 2-((1-(3-bromobenzyl)-4,6-3-yl)sulfonyl)-N-(5-methylisoxazol-3-yl)acetamide], the “Efficacy (% ACh maximum at 30 μM)” value was 103% and the EC50 was 5.37 µM.

In the case of `Cc1cc(NC(=O)CS(=O)(=O)c2cn(Cc3cccc(Cl)c3F)c3ccccc23)no1` [compound 26, 2-((1-(3-chloro-2-fluorobenzyl)-1H-indol-3-yl)sulfonyl)-N-(5-methylisoxazol-3-yl)acetamide], the “Efficacy (% ACh maximum at 30 μM)” value was 56% and the EC50 is 5.1 µM. Taken in the same sequence, the figures for `O=C(CS(=O)(=O)c1cn(Cc2cccc(Br)c2)c2cc(F)cc(F)c12)Nc1cccnn1` [compound 7, 2-((1-(3-bromobenzyl)-4,6-difluoro-1H-indol-3-yl)sulfonyl)-N-(pyridazin-3-yl)acetamide] were 63% and 2.4 µM. Regarding `Cc1cc(NC(=O)C(C)S(=O)(=O)c2cn(Cc3cc(Br)ccc3F)c3ccccc23)no1` (stereo not shown) [compound 63, 2-{1-[(5-bromo-2-fluorophenyl)methyl]-1H-indole-3-sulfonyl}-N-(5-methyl-1,2-oxazol-3-yl)propanamide], the EC50 is more than 10 µM. Regarding `Cc1cc(NC(=O)CS(=O)(=O)c2cn(Cc3cccc(-c4cn[nH]c4)c3)c3cc(F)cc(F)c23)no1` [compound 4, 2-((1-(3-(1H-pyrazol-4-yl)benzyl)-4,6-difluoro-1H-indol-3-yl)sulfonyl)-N-(5-methylisoxazol-3-yl)acetamide], the “Efficacy (% ACh maximum at 30 μM)” value is recorded as 102% and the EC50 turned out to be 1.85 µM.
